In ChEMBL document CHEMBL1201862, “PubChem BioAssay data set” (2004):
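How tested: cells in 96-well plates exposed to compound for 48 hours at five concentrations. Here, GI50 denotes the concentration required for 50% inhibition of growth.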 Activity calls are given as the source filed them. Cut-off read from the data, not from the text of the source: active = GI50 up to about 1.1 µM and inactive = higher.

Experiments:
Test in all cases: NCI-60 cell line screen, 48 h
EKVX = tested on: EKVX
K562 = tested on: K562
OVCAR-4 = tested on: OVCAR-4
UACC-257 = tested on: UACC-257
M14 = tested on: M14
SNB-75 = tested on: SNB-75
SW-620 = tested on: SW-620
OVCAR-5 = tested on: OVCAR-5
NCI-H460 = tested on: NCI-H460
A549 = tested on: A549
A498 = tested on: A498
MOLT-4 = tested on: MOLT-4
SK-MEL-5 = tested on: SK-MEL-5
LOX IMVI = tested on: LOX IMVI
HCC 2998 = tested on: HCC 2998
HCT-116 = tested on: HCT-116
CAKI-1 = tested on: CAKI-1
SR = tested on: SR
DU-145 = tested on: DU-145
RXF 393 = tested on: RXF 393

CN(C)CCOc1ccc2[nH]c(C(=O)N3CC(CCl)c4c3cc(N)c3ccccc43)cc2c1 (stereo not given)
GI50 (EKVX): < 0.01 µM (active) | GI50 (K562): < 0.01 µM (active) | GI50 (OVCAR-4): < 0.01 µM (active) | GI50 (UACC-257): < 0.01 µM (active) | GI50 (M14): < 0.01 µM (active) | GI50 (SNB-75): < 0.01 µM (active) | GI50 (SW-620): < 0.01 µM (active) | GI50 (OVCAR-5): < 0.01 µM (active) | GI50 (NCI-H460): < 0.01 µM (active) | GI50 (A549): < 0.01 µM (active) | GI50 (A498): < 0.01 µM (active) | GI50 (MOLT-4): < 0.01 µM (active) | GI50 (SK-MEL-5): < 0.01 µM (active) | GI50 (LOX IMVI): < 0.01 µM (active) | GI50 (HCC 2998): < 0.01 µM (active) | GI50 (HCT-116): < 0.01 µM (active) | GI50 (CAKI-1): < 0.01 µM (active) | GI50 (SR): < 0.01 µM (active) | GI50 (DU-145): < 0.01 µM (active)

CCCCN=C(OC1C=CCCC1)SC (stereo not given)
GI50 (EKVX): > 100 µM (inactive) | GI50 (K562): > 100 µM (inactive) | GI50 (OVCAR-4): > 100 µM (inactive) | GI50 (UACC-257): > 100 µM (inactive) | GI50 (M14): > 100 µM (inactive) | GI50 (SNB-75): 51.9 µM (inactive) | GI50 (SW-620): > 100 µM (inactive) | GI50 (OVCAR-5): > 100 µM (inactive) | GI50 (NCI-H460): > 10 µM (inactive) | GI50 (A549): > 100 µM (inactive) | GI50 (A498): 51.8 µM (inactive) | GI50 (MOLT-4): > 100 µM (inactive) | GI50 (SK-MEL-5): > 100 µM (inactive) | GI50 (HCC 2998): > 100 µM (inactive) | GI50 (HCT-116): > 100 µM (inactive) | GI50 (SR): > 100 µM (inactive) | GI50 (DU-145): > 100 µM (inactive)

Cc1cc(NC2=NCCO2)c2c(c1C)CCCC2
GI50 (EKVX): 23.6 µM (inactive) | GI50 (OVCAR-4): 15.7 µM (inactive) | GI50 (UACC-257): 9.33 µM (inactive) | GI50 (M14): 11.1 µM (inactive) | GI50 (SNB-75): 19.2 µM (inactive) | GI50 (SW-620): 27.1 µM (inactive) | GI50 (OVCAR-5): 17.1 µM (inactive) | GI50 (NCI-H460): 11.7 µM (inactive) | GI50 (A549): 29.6 µM (inactive) | GI50 (A498): 13.6 µM (inactive) | GI50 (MOLT-4): 17.4 µM (inactive) | GI50 (SK-MEL-5): 15.7 µM (inactive) | GI50 (HCC 2998): 15.2 µM (inactive) | GI50 (HCT-116): 15.2 µM (inactive) | GI50 (SR): 18.5 µM (inactive) | GI50 (DU-145): 27.5 µM (inactive) | GI50 (RXF 393): 39.3 µM (inactive)

COC(=O)c1ccc(S)c(S(=O)(=O)Nc2nc(N)n[nH]2)c1
GI50 (EKVX): > 100 µM (inactive) | GI50 (K562): > 100 µM (inactive) | GI50 (OVCAR-4): > 100 µM (inactive) | GI50 (UACC-257): > 100 µM (inactive) | GI50 (M14): > 100 µM (inactive) | GI50 (SW-620): > 100 µM (inactive) | GI50 (OVCAR-5): > 100 µM (inactive) | GI50 (NCI-H460): > 100 µM (inactive) | GI50 (A549): > 100 µM (inactive) | GI50 (A498): > 100 µM (inactive) | GI50 (MOLT-4): > 100 µM (inactive) | GI50 (SK-MEL-5): > 100 µM (inactive) | GI50 (LOX IMVI): > 100 µM (inactive) | GI50 (HCT-116): > 100 µM (inactive) | GI50 (CAKI-1): > 100 µM (inactive) | GI50 (SR): > 100 µM (inactive) | GI50 (DU-145): > 100 µM (inactive)

O=C(O)Cc1cccc2c(=O)c3cccc([N+](=O)[O-])c3[nH]c12
GI50 (K562): > 100 µM (inactive) | GI50 (OVCAR-4): 38.1 µM (inactive) | GI50 (UACC-257): > 100 µM (inactive) | GI50 (M14): 27.8 µM (inactive) | GI50 (SNB-75): 24.2 µM (inactive) | GI50 (SW-620): > 100 µM (inactive) | GI50 (OVCAR-5): 36.5 µM (inactive) | GI50 (NCI-H460): > 100 µM (inactive) | GI50 (A549): > 100 µM (inactive) | GI50 (A498): > 100 µM (inactive) | GI50 (MOLT-4): > 100 µM (inactive) | GI50 (SK-MEL-5): 44.7 µM (inactive) | GI50 (LOX IMVI): 48.2 µM (inactive) | GI50 (HCC 2998): 60.3 µM (inactive) | GI50 (HCT-116): > 100 µM (inactive) | GI50 (CAKI-1): > 100 µM (inactive) | GI50 (SR): 21.4 µM (inactive) | GI50 (DU-145): 58.5 µM (inactive)

CC(C)C1=CC23CCC4C(C)(C(=O)O)CCCC4(C)C2CC1C1C(=O)N(c2ccc(Cc4ccc(N5C(=O)C6C7CC8C9(C)CCCC(C)(C(=O)O)C9CCC8(C=C7C(C)C)C6C5=O)cc4)cc2)C(=O)C13 (stereo not given)
GI50 (EKVX): 6.58 µM (inactive) | GI50 (K562): 7.87 µM (inactive) | GI50 (OVCAR-4): 14.4 µM (inactive) | GI50 (M14): 9.44 µM (inactive) | GI50 (SW-620): 11.4 µM (inactive) | GI50 (OVCAR-5): 20.8 µM (inactive) | GI50 (A549): 3.72 µM (inactive) | GI50 (A498): 8.51 µM (inactive) | GI50 (MOLT-4): 5.5 µM (inactive) | GI50 (SK-MEL-5): 12.4 µM (inactive) | GI50 (HCC 2998): 10.1 µM (inactive) | GI50 (HCT-116): 4.39 µM (inactive) | GI50 (SR): 5.75 µM (inactive) | GI50 (DU-145): 10.3 µM (inactive) | GI50 (RXF 393): 13 µM (inactive)

Cc1cc(-n2c(/C=C/c3ccc(Cl)cc3)nc3cc(Cl)ccc3c2=O)on1
GI50 (EKVX): 22.4 µM (inactive) | GI50 (K562): > 50 µM (inactive) | GI50 (OVCAR-4): 1.25 µM (inactive) | GI50 (UACC-257): > 50 µM (inactive) | GI50 (M14): 12.7 µM (inactive) | GI50 (SW-620): 48 µM (inactive) | GI50 (OVCAR-5): > 50 µM (inactive) | GI50 (NCI-H460): 5.12 µM (inactive) | GI50 (A549): 14.1 µM (inactive) | GI50 (A498): 2.31 µM (inactive) | GI50 (MOLT-4): > 50 µM (inactive) | GI50 (SK-MEL-5): 16.4 µM (inactive) | GI50 (LOX IMVI): 15.1 µM (inactive) | GI50 (HCC 2998): > 50 µM (inactive) | GI50 (HCT-116): 6.1 µM (inactive) | GI50 (CAKI-1): > 50 µM (inactive) | GI50 (SR): 0.005 µM (active) | GI50 (DU-145): > 50 µM (inactive)

Cc1c(CNc2ccc(C(=O)NC(CCCNC(=O)c3ccccc3C(=O)O)C(=O)O)cc2)cnc2nc(N)nc(N)c12 (stereo not given)
GI50 (EKVX): 0.00248 µM (active) | GI50 (K562): < 0.0001 µM (active) | GI50 (OVCAR-4): 1.55 µM (inactive) | GI50 (UACC-257): 0.785 µM (active) | GI50 (M14): 0.000656 µM (active) | GI50 (SNB-75): 0.00222 µM (active) | GI50 (SW-620): < 0.0001 µM (active) | GI50 (OVCAR-5): 0.199 µM (active) | GI50 (NCI-H460): 0.000381 µM (active) | GI50 (A549): 0.000419 µM (active) | GI50 (MOLT-4): 0.000566 µM (active) | GI50 (SK-MEL-5): 0.000644 µM (active) | GI50 (LOX IMVI): < 0.0001 µM (active) | GI50 (HCC 2998): 0.000899 µM (active) | GI50 (HCT-116): 0.000582 µM (active) | GI50 (CAKI-1): 0.001 µM (active) | GI50 (SR): 0.000452 µM (active) | GI50 (DU-145): 0.00091 µM (active) | GI50 (RXF 393): 0.382 µM (active)
